Measured values published in article PMC7435657, “[^99mTc]Tc-DB1 Mimics with Different-Length PEG Spacers: Preclinical Comparison in GRPR-Positive Models” (Molecules, 2020).

What was measured:
human GRPR = human GRPR (Homo sapiens, UniProt P30550); assay: biochemical
Description: Competition binding assays for DB7, DB13 and DB14 were performed in PC-3 cell membranes.
Competition binding experiments of DB7, […] against [^125 I][I-Tyr^4]BBN were conducted in PC-3 cell membranes. Increasing concentrations of tested peptide (10^−13–10^−5 M) were mixed with the radioligand (40,000 cpm per assay tube, at a 50 pM concentration) and the membrane homogenate in a total volume of 300 μL binding buffer (pH 7.4, 50 mM HEPES, 1% BSA, 5.5 mM MgCl2, 35 μM bacitracin). Triplicates of each concentration point were incubated for 60 min at 22 °C in an Incubator-Orbital Shaker unit (MPM Instr. SrI, Bernareggio, MI, Italy). The incubation was interrupted by adding ice-cold washing buffer (10 mM HEPES pH 7.4, 150 mM NaCl), followed by rapid filtration over glass fiber filters (Whatman GF/B, presoaked in binding buffer) on a Brandel Cell Harvester (Adi Hassel Ingenieur Büro, Munich, Germany). Filters were washed with cold washing buffer and were counted for their radioactivity content in an automated well-type gamma counter [NaI(Tl) 3″ crystal, Canberra Packard Cobra Quantum series instrument]. The 50% inhibitory concentration (IC50) values were calculated by nonlinear regression according to a one-site model applying the PRISM 6 program (Graph Pad Software, San Diego, CA, USA) and are expressed as mean ± SD of three experiments performed in triplicate.

PC-3 cells = assay: Radiotracer uptake (internalized + membrane bound) in PC-3 cells; type: cell-based, human; details: 1 h incubation at 37 °C, % of total added radioactivity, mean ± SD of 3 experiments
Description: The uptake of [^99mTc]Tc-DB7, [^99mTc]Tc-DB13, and [^99mTc]Tc-DB14 in PC-3 cells is compared in Figure 3. In all cases, the bulk of radioactivity was found on the membrane of PC-3 cells with only a small portion detected within the cells, consistent with a noninternalizing radioantagonist profile.
Figure 3 Specific uptake of [^99mTc]Tc-DB7 (pink bars), [^99mTc]Tc-DB13 (violet bars) and [^99mTc]Tc-DB14 (gray bars) in PC-3 cells after 1 h incubation at 37 °C (checkered bars: internalized, solid bars: membrane bound fractions); results represent the mean ± SD of 3 experiments performed in triplicate.
For internalization assays with [^99mTc]Tc-DB7, [^99mTc]Tc-DB13, and [^99mTc]Tc-DB14, PC-3 cells were seeded in six well plates (≈1 × 10^6 cells per well) 24 h before the experiment. […] Nonspecific internalization was determined by a parallel triplicate series containing 1 μM [Tyr^4]BBN. […] Sample radioactivity was measured on the gamma counter and the percentage, of specific internalized and membrane-bound fractions were calculated with Microsoft Excel (after subtracting nonspecific from overall internalized and membrane-bound counts). Results represent specific internalized ± SD of total added radioactivity per well from three experiments performed in triplicate.

Chain of human GRPR (P30550 whole entry): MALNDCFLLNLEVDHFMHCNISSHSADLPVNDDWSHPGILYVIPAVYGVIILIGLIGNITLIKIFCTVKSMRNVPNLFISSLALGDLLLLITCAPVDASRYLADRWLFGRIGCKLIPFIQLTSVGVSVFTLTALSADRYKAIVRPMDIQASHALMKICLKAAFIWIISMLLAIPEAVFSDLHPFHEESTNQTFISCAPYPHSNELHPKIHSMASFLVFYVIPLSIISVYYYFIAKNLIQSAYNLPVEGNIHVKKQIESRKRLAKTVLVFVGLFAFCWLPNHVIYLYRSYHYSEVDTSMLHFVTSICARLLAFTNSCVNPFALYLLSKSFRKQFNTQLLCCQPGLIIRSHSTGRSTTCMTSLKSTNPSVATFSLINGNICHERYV

Molecule | IC50 (human GRPR) [nM] | Specific cell uptake (PC-3 cells) [%]
CCNC(=O)[C@H](CC(C)C)NC(=O)[C@H](Cc1c[nH]cn1)NC(=O)CNC(=O)[C@@H](NC(=O)[C@H](C)NC(=O)[C@H](Cc1c[nH]c2ccccc12)NC(=O)[C@H](CCC(N)=O)NC(=O)[C@@H](Cc1ccccc1)NC(=O)CCOCCOCCOCCOCCNC(=O)C(CNCCN)CNCCN)C(C)C [DB14, [N4-PEGx-DPhe^6,Leu-NHEt^13]BBN(6-13)] | 1.18 ± 0.09 | –
CCNC(=O)[C@H](CC(C)C)NC(=O)[C@H](Cc1c[nH]cn1)NC(=O)CNC(=O)[C@@H](NC(=O)[C@H](C)NC(=O)[C@H](Cc1c[nH]c2ccccc12)NC(=O)[C@H](CCC(N)=O)NC(=O)[C@@H](Cc1ccccc1)NC(=O)COCCOCCNC(=O)C(CNCCN)CNCCN)C(C)C [DB7, [N4-PEGx-DPhe^6,Leu-NHEt^13]BBN(6-13)] | 0.93 ± 0.01 | –
CCNC(=O)[C@H](CC(C)C)NC(=O)[C@H](Cc1c[nH]cn1)NC(=O)CNC(=O)[C@@H](NC(=O)[C@H](C)NC(=O)[C@H](Cc1c[nH]c2ccccc12)NC(=O)[C@H](CCC(N)=O)NC(=O)[C@@H](Cc1ccccc1)NC(=O)CCOCCOCCOCCNC(=O)C(CNCCN)CNCCN)C(C)C [DB13, [N4-PEGx-DPhe^6,Leu-NHEt^13]BBN(6-13)] | 1.03 ± 0.01 | –
[^99mTc]Tc-[N4-PEGx-DPhe^6,Leu-NHEt^13]BBN(6-13) [[^99mTc]Tc-DB7] | – | 2.6 ± 0.5
